Test results from publication PMC3974779, “Pterostilbene-Isothiocyanate Conjugate Suppresses Growth of Prostate Cancer Cells Irrespective of Androgen Receptor Status” (PLoS ONE, 2014).

Assays:
Type in all cases: cell-based, human
[1] = tested on: AR gene expression in LNCaP cells; assay: RT-PCR of AR expression; settings: for reduction of DHT induced AR transcription: 10 nM DHT
Method: Total RNA was extracted from the treated cells using RNA isolation kit obtained from Genei (Bangalore, India). The extracted RNA samples were then quantified and equal amount of the individual treatments was transcribed with the help of an RT - PCR kit from Genei (Bangalore, India) according to the manufacturer’s instruction. PCR was performed by denaturing at 94°C for 60 s, annealing at various temperatures (depending on primer pairs used) for 45 s and extension at 72°C for 2 min followed by the number of cycles for amplification. Primers for Bcl-2, Bcl-xL, Bax, AR and β-Actin were designed with the help of Primer 3 software and standardized in the laboratory. The PCR products were then separated on 2% agarose gel and visualized in a gel documentation system (Bio Rad, USA). The intensity of the bands on agarose gels were analyzed using ImageJ 1.43 software (NIH, USA) and normalized with respect to β-actin PCR products. Each of the RT-PCR was carried out three times. Table S1 presents the primer sequence, product size, annealing temperature, and number of cycles used for all primers.

p-ERK in LNCaP cells = assay: Immunoblot of ERK phosphorylation; settings: highest dose, 24 h
Method: The whole-cell lysates were prepared as described previously in immunoprecipitation (IP) buffer containing 50 mM Tris-HCl (pH 8.0), 150 mM NaCl, 5 mM EDTA, and 1% Triton X-100. Protein aliquots of 500 μg were then incubated overnight at 4°C using 2 μg of antibody directed against AR. The Protein A-Cl Agarose beads were then added and further incubated for 6 h at 4°C. The immunoprecipitates were washed four times with the IP buffer and the immunocomplexes were recovered by boiling in SDS sample buffer. Finally the western blot was carried out using anti-AR, anti-SRC-1 and anti-GRIP-1 antibodies (Santa Cruz, CA, USA). For western blot analysis, the cell lysates were prepared after harvesting them in lysis buffer. About 40 μg of total protein was electrophoresed by 12% SDS-PAGE, and the western blotting was carried out using standard protocol. In brief, the analyzed proteins were transferred to nylon membranes. The blots were then blocked with TBST buffer (20 mM Tris-Cl, pH 7.5, 150 mM sodium chloride, 0.05% Tween-20) containing 5% skim milk powder. They were then washed with TBST buffer and incubated overnight at 4°C with the same buffer containing appropriate amounts of primary antibodies: caspase-3, Bax, Bcl-2, Akt, p-Akt, ERK, p-ERK, AR, SRC-1, GRIP-1 (1∶500) and β-actin (1∶1000). […]

GRIP-1 in LNCaP cells = assay: Immunoblot of AR co-activators
Method: (§1) The whole-cell lysates were prepared as described previously in immunoprecipitation (IP) buffer containing 50 mM Tris-HCl (pH 8.0), 150 mM NaCl, 5 mM EDTA, and 1% Triton X-100. Protein aliquots of 500 μg were then incubated overnight at 4°C using 2 μg of antibody directed against AR. The Protein A-Cl Agarose beads were then added and further incubated for 6 h at 4°C. The immunoprecipitates were washed four times with the IP buffer and the immunocomplexes were recovered by boiling in SDS sample buffer. Finally the western blot was carried out using anti-AR, anti-SRC-1 and anti-GRIP-1 antibodies (Santa Cruz, CA, USA). For western blot analysis, the cell lysates were prepared after harvesting them in lysis buffer. About 40 μg of total protein was electrophoresed by 12% SDS-PAGE, and the western blotting was carried out using standard protocol. In brief, the analyzed proteins were transferred to nylon membranes. The blots were then blocked with TBST buffer (20 mM Tris-Cl, pH 7.5, 150 mM sodium chloride, 0.05% Tween-20) containing 5% skim milk powder. They were then washed with TBST buffer and incubated overnight at 4°C with the same buffer containing appropriate amounts of primary antibodies: caspase-3, Bax, Bcl-2, Akt, p-Akt, ERK, p-ERK, AR, SRC-1, GRIP-1 (1∶500) and β-actin (1∶1000). The blots were then washed and incubated with anti-rabbit secondary antibody (1∶20,000) conjugated with horseradish peroxidase (HRP). Color development was performed in the dark by using an ECL kit (Amersham, GE Healthcare, Buckinghamshire, UK). The developed blots were subjected to densitometric analysis by ImageJ 1.43 software (NIH, USA) using β-actin as internal control.

SRC-1 in LNCaP cells = assay: Immunoblot of AR co-activators
Method: as §1

[2] = tested on: AR protein in LNCaP cells; assay: Immunoblot of AR protein; settings: for inhibition of DHT induced AR protein levels: 10 nM DHT; for inhibition of AR protein levels: absence of DHT
Method: as §1

In the case of `COc1cc(/C=C/c2ccc(O)c(/C=N/NC(N)=S)c2)cc(OC)c1` [conjugate, Pterostilbene-isothiocyanate conjugate], the “reduction of DHT induced AR transcription” value ([1]; 10 μM) is reported as “about 1.2 fold”, the “reduction of DHT induced AR transcription” value ([1]; 20 μM) is reported as about 1.3 fold and the “reduction of DHT induced AR transcription” value ([1]; 40 μM) is reported as about 1.4 fold. For the same molecule, the “effect on expression of AR gene” value ([1]; below 40 μM, absence of 10 nM DHT, RT-PCR) was “no significant effects”, the “inhibition of p-ERK” value (p-ERK in LNCaP cells) was “almost completely inhibited” and the “reduction of GRIP-1 level” value (GRIP-1 in LNCaP cells; 10 μM) was 1.7 folds. For the same molecule, the “reduction of GRIP-1 level” value (GRIP-1 in LNCaP cells; 20 μM) was 2.6 folds, the “decrease in expression of SRC-1 protein” value (SRC-1 in LNCaP cells; 10 μM) was 1.4 folds and the “decrease in expression of SRC-1 protein” value (SRC-1 in LNCaP cells; 20 μM) was 2.6 folds. The “inhibition of DHT induced AR protein levels” value ([2]; 10 μM) was 1.1 folds, the “inhibition of AR protein levels” value ([2]; 10 μM) was 2 folds and the “inhibition of DHT induced AR protein levels” value ([2]; 20 μM) was 1.8 folds. The “inhibition of AR protein levels” value ([2]; 20 μM) was 5 folds.
